In US20130280214A1, “POLYCYCLIC HETEROCYCLE DERIVATIVES AND METHODS OF USE THEREOF FOR THE TREATMENT OF VIRAL DISEASES” (Merck Sharp & Dohme Corp., priority 2010, published 2013):
Read-outs that look alike come from different tables or passages of the source.

Assays:
HCV replicon = assay: RHEPLUC assay (replicon luciferase, EC50 of single agents); type: cell-based, Hepatitis C virus (HCV); conditions: Hepatitis C virus
Description: The previously determined EC50 for each test compound is then placed in the middle of the combination study titration curve.
Test compounds are ordered at 4000× final concentration, one or two days before the assay, and are diluted 1/10 in DMSO (400× concentration). The diluted first test compound (400×) is distributed in a first low dead volume plate as described in FIG. 1. The diluted second test compound (400×) is distributed in a second low dead volume plate as described in FIG. 2.
To obtain maximum luciferase signal (0% inhibition control), 100% DMSO is added to the 200× test compound mix plate. For minimum luciferase signal (100% inhibition control), a known NS5A inhibitor (Compound A, EC50 of 0.01 nM, made as described in International Patent Application No. PCT/US2010/028653) is used at 1 nM final concentration. Accordingly, 6 μL of 200 nM Compound A is added to the 200× test compound mix plate (see FIG. 4).
On the day of the experiment, Complete growth media (10 μL) is added to all wells in a 384 well assay plate, then 150 nL per well from the test compound mix plate is added to the assay plate.
The cell monolayer is rinsed with pre-warmed PBS (˜37° C.), then pre-warmed trypsin (0.25%, ˜37° C.) is added and the cells are incubated for 2 to 5 minutes in 5% CO2 at 37° C. Complete growth media is then added, cells are mixed and counted, and then diluted in complete growth media to a final concentration of 1.0×10^5 cells/mL. […]
Bright-Glo Luciferase reagent is prepared as specified by the kit instructions and kept in the dark until the reagent has reached room temperature. […] The plate is allowed to incubate for 5 minutes at room temperature, then the plate is placed on a reader within 30 minutes after incubation is complete, and the luminescence is monitored at 0.5 seconds per well.
Using the RHEPLUC assay, EC50 values were calculated prior to initiation of combination studies for a selected Polycyclic Heterocycle Derivative of the present invention (compound 2) and for two first additional therapeutic agents of the present invention (compounds F5 and F7).

[1] = Cytotoxicity assay (CellTiter Blue); type: cell-based; conditions: CellTiter Blue, cells treated 72 hours
Description: (§1) The cytotoxicity of compounds of Table 1 and of the additional therapeutic agents used in the compositions and methods of the present invention can be measure using the assay described below.
(§2) Compounds are ordered 1 or 2 days before the experiment. Compounds and cells are prepared using the method described in Example 2 for the RHEPLUC assay (See FIG. 1) or combination study (See FIG. 2)
(§3) After 3 day incubation of cells with individual test compounds, cytotoxicity is determined using CellTiter Blue as described in the assay protocol below.
(§4) The CellTiter Blue solution (4 mL) is diluted with 1× Dulbecco's PBS (16 mL). 5 μL of the resulting solution is added to each well of the 384 well assay plate containing cells treated with compound for 72 hours. The plate is shaken for 10 seconds, then incubated in 5% CO2 at 37° C. for 1 hour. The plate is then shaken again for 10 seconds and the fluorescence is measured at excitation wavelength 540 nm and emission wavelength 590 nm.
(§5) NOTE: cells (all genotypes and mutants) are cultured in DMEM/10% FBS in the presence of G418. During the assay G418 is absent.
(§6) For cytotoxicity assays data is analyzed to obtain the CC50 of each compound tested alone and in combination. The analysis uses the average of 100% cytotoxicity (media only without cells) and 0% cytotoxicity (100% viability, 0.5% DMSO in the presence of cells) to calculate the percentage of compound cytotoxicity and CC50 using the following 4 parameter equation:
(§7) Wherein average low=100% cytotoxicity (media only) and average high=100% viability (0.5% DMSO).
(§8) CC50 values were calculated for a selected Polycyclic Heterocycle Derivative of the present invention (compound 2) and for […] first additional therapeutic agents of the present invention. The therapeutic index for the selected compounds was also calculated, wherein TI=CC50/EC50.

replicon cells = assay: Cytotoxicity assay (CellTiter Blue); type: cell-based; conditions: TI=CC50/EC50
Description: as §1, §2, §3, §4, §5, §6, §7, §8

[2] = test system: genotype 1a replicon cells; assay: 3-day cell-based HCV replicon assay (Taqman); conditions: Hepatitis C virus
Description: The replicon RNA level was measured using real time PCR (Taqman assay). […] EC50 was defined as the concentration of inhibitor necessary to achieve ΔCT=1 over the projected baseline; EC90 the concentration necessary to achieve ΔCT=3.2 over the baseline. Alternatively, to quantitate the absolute amount of replicon RNA, a standard curve was established by including serially diluted T7 transcripts of replicon RNA in the Taqman assay. All Taqman reagents were from PE Applied Biosystems. Such an assay procedure was described in detail in e.g. Malcolm et al., Antimicrobial Agents and Chemotherapy 50: 1013-1020 (2006).

[3] = test system: genotype 1a replicon cells; assay: 15-day cell-based HCV replicon curing assay; parameters: species or system Hepatitis C virus (HCV); conditions: genotype 1a replicon cells treated 15 days
[4] = RHEPLUC assay, single agent, 72 hours incubation

| SMILES | EC50 (HCV replicon; [4]) | CC50 at 72 h [1] | Therapeutic Index (replicon cells) | EC90 ([2]; printed as 1×EC90, read-out: EC90) | EC50 (HCV replicon; known NS5A inhibitor used as 100% inhibition control, assay of the value not stated) | EC90 ([2]; printed value is three times the EC90, read-out: 3×EC90) | NS3 (amino acid residues 1-180) population sequence analysis, resistance mutations [3] |
| --- | --- | --- | --- | --- | --- | --- | --- |
| COC(=O)N[C@H](C(=O)N1CCC[C@H]1c1ncc(-c2ccc(-c3cc4cc(-c5cnc([C@@H]6CCCN6C(=O)[C@@H](NC(=O)OC)C(C)C)[nH]5)ccc4o3)cc2)[nH]1)C(C)C [Compound 2] | 0.004 nM | 9700 nM | 2425000 | 0.006 nM |  |  |  |
| COC(=O)NC(C(=O)N1CCC[C@H]1c1ncc(-c2ccc3oc(-c4ccc(-c5cnc([C@@H]6CCCN6C(=O)[C@H](NC(=O)OC)c6ccccc6)[nH]5)cc4)cc3c2)[nH]1)c1ccccc1 (stereo partly shown) [Compound A, reference compound] |  |  |  |  | 0.01 nM |  |  |
| C=C[C@@H]1C[C@]1(NC(=O)[C@@H]1C[C@@H]2CN1C(=O)[C@H](C(C)(C)C)NC(=O)O[C@@H]1C[C@H]1CCCCCc1nc3ccc(OC)cc3nc1O2)C(=O)NS(=O)(=O)C1CC1 [Compound F5] | 0.322 nM | 35000 nM | 108865 |  |  | 7.5 nM | low levels of D168G and P88A |
